Measured values from PMC8398262, “New Sulfanilamide Derivatives Incorporating Heterocyclic Carboxamide Moieties as Carbonic Anhydrase Inhibitors” (Pharmaceuticals, 2021).

Experiments:
hCA IX = target: T1, hCA IX (Homo sapiens, UniProt Q16790); test: stopped-flow CO2 hydrase assay, hCA IX; type: biochemical; settings: mean from 3 different assays, errors ±5–10%
T1 construct: made in house
Experimental: (§1) For each inhibitor, at least six traces of the initial 5–10% of the reaction were used for determining the initial velocity. The uncatalyzed rates were determined in the same manner and subtracted from the total observed rates. Stock solutions of the inhibitor (0.1 mM) were prepared in distilled–deionized water and dilutions up to 0.01 nM were done thereafter with the assay buffer. Inhibitor and enzyme solutions were preincubated together for 15 min at room temperature prior to the assay, allowing the formation of the E–I complex.

hCA I = target: T2, hCA I (Homo sapiens, UniProt P00915); test: stopped-flow CO2 hydrase assay, hCA I; type: biochemical; settings: mean from 3 different assays, errors ±5–10%
T2 construct: made in house
T2 sequence (P00915 whole entry): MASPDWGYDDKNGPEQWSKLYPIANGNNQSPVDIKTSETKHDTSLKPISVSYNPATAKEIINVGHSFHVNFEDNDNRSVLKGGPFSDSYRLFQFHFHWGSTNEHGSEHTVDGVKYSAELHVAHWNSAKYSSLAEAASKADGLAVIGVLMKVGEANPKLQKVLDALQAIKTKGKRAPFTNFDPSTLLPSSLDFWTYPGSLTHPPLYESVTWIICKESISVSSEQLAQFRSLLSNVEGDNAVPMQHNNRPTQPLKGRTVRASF
Experimental: as §1

hCA II = target: T3, hCA II (Homo sapiens, UniProt P00918); test: stopped-flow CO2 hydrase assay, hCA II; type: biochemical; settings: for Ki: stopped-flow CO2 hydrase assay, mean from 3 different assays, errors ±5–10%
T3 construct: made in house
Experimental: as §1

hCA XII = target: T4, hCA XII (Homo sapiens, UniProt O43570); test: stopped-flow CO2 hydrase assay, hCA XII; type: biochemical; settings: mean from 3 different assays, errors ±5–10%
T4 construct: made in house
T4 sequence (O43570 25-354): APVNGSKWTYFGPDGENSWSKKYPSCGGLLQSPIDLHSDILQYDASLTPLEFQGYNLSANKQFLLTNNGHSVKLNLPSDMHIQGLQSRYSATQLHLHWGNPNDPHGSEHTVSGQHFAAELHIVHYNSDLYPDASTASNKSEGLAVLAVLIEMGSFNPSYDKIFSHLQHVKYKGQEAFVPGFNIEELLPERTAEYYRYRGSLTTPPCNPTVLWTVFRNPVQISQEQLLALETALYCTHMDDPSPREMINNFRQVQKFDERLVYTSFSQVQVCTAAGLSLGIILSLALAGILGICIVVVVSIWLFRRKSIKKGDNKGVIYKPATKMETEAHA
Experimental: as §1

| Compound | Ki (hCA IX) | Ki (hCA I) | Ki (hCA II) | melting point | Ki (hCA XII) | selectivity index (SI) towards hCA I (hCA II; selectivity for hCA II over hCA I) | selectivity index (SI) compared to hCA IX (hCA II; selectivity for hCA II over hCA IX) | selectivity index (SI) to hCA XII (hCA II; selectivity for hCA II over hCA XII) |
| --- | --- | --- | --- | --- | --- | --- | --- | --- |
| CCn1c(C(=O)Nc2ccc(S(N)(=O)=O)cc2)cc2sccc21 [Compound 8b, N-[4-(aminosulfonyl)phenyl]-4-ethyl-4H-thieno[3,2-b]pyrrole-5-carboxamide] | 251 nM | 270 nM | 6.8 nM | 248 to 249 °C | 5.1 nM |  |  |  |
| COc1ccc(-c2nc3s/c(=C\c4ccc(-c5ccc(S(N)(=O)=O)cc5)o4)c(=O)n3n2)cc1OC [Compound 17b, 4-(5-{(Z)-[2-(3,4-Dimethoxyphenyl)-6-oxo[1,3]thiazolo[3,2 b][1,2,4]triazol-5(6H)-ylidene]methyl} -2-furyl)benzenesulfonamide] | 253 nM | 918 nM | 59.4 nM | 294 to 295 °C | 40.2 nM |  |  |  |
| Cn1c(C(=O)Nc2ccc(S(N)(=O)=O)cc2)cc2sccc21 [Compound 8a, N-[4-(aminosulfonyl)phenyl]-4-methyl-4H-thieno[3,2-b]pyrrole-5-carboxamide] | 66.6 nM | 665 nM | 8.8 nM | 276 to 278 °C | 30.7 nM | 75.5 | 7.6 | 3.5 |
| NS(=O)(=O)c1ccc(NC(=O)c2cc3sccc3n2Cc2ccc(Cl)cc2)cc1 [Compound 8f, N-[4-(aminosulfonyl)phenyl]-4-(4-chlorobenzyl)-4H-thieno[3,2-b]pyrrole-5-carboxamide] | 81.4 nM | 699 nM | 68.1 nM | 219 to 220 °C | 8.9 nM |  |  |  |
| Cn1c(C(=O)Nc2ccc(S(N)(=O)=O)cc2)cc2occc21 [Compound 7a, N-[4-(aminosulfonyl)phenyl]-4-methyl-4H-furo[3,2-b]pyrrole-5-carboxamide] | 103 nM | 718 nM | 8.4 nM | 273 to 275 °C | 6.9 nM |  |  |  |
| NS(=O)(=O)c1ccc(NC(=O)c2cc3occc3n2Cc2ccccc2Cl)cc1 [Compound 7e, N-[4-(aminosulfonyl)phenyl]-4-(2-chlorobenzyl)-4H-furo[3,2-b]pyrrole-5-carboxamide] | 239 nM | 858 nM | 23.8 nM | 239 to 241 °C | 19.6 nM |  |  |  |
| NS(=O)(=O)c1ccc(-c2ccc(/C=c3\sc4nc(-c5cccc(Cl)c5)nn4c3=O)o2)cc1 [Compound 17a, 4-(5-{(Z)-[2-(3-chlorophenyl)-6-oxo[1,3]thiazolo[3,2-b][1,2,4]triazol-5(6H)-ylidene]methyl}-2-furyl)enzenesulfonamide] | 320 nM | 2920 nM | 44.7 nM | 312 to 315 °C | 7.6 nM |  |  |  |
| NS(=O)(=O)c1ccc(NC(=O)c2cc3occc3n2Cc2ccc(Cl)cc2)cc1 [Compound 7f, N-[4-(aminosulfonyl)phenyl]-4-(4-chlorobenzyl)-4H-furo[3,2-b]pyrrole-5-carboxamide] | 187 nM | 878 nM | 34.3 nM | 237 to 238 °C | 37.2 nM |  |  |  |
| NS(=O)(=O)c1ccc(NC(=O)C2=C(c3ccccc3)SCCO2)cc1 [Compound 14a, N-[4-(aminosulfonyl)phenyl]-3-phenyl-5,6-dihydro-1,4-oxathiine-2-carboxamide] | 281 nM | 56.5 nM | 6.7 nM |  | 6.1 nM |  |  |  |
| NS(=O)(=O)c1ccc(CCNC(=O)C2=C(c3ccccc3)SCCO2)cc1 [Compound 14b, N-{2-[4-(aminosulfonyl)phenyl]ethyl}-3-phenyl-5,6-dihydro-1,4-oxathiine-2-carboxamide] | 155 nM | 71.2 nM | 7.4 nM | 208 to 209 °C | 6.6 nM |  |  |  |
| NS(=O)(=O)c1ccc(NC(=O)c2cc3sccc3n2Cc2ccccc2)cc1 [Compound 8c, N-[4-(aminosulfonyl)phenyl]-4-benzyl-4H-thieno[3,2-b]pyrrole-5-carboxamide] | 140 nM | 400 nM | 8.9 nM | 255 to 256 °C | 7.8 nM |  |  |  |
| CC1(C(=O)Nc2ccc(S(N)(=O)=O)cc2)Oc2ccccc2NC1=O (stereo not shown) [Compound 11, N-[4-(aminosulfonyl)phenyl]-2-methyl-3-oxo-3,4-dihydro-2H-1,4-benzoxazine-2-carboxamide] | 260 nM | 70.6 nM | 6.5 nM | 269 to 270 °C | 5.3 nM |  |  |  |
| NS(=O)(=O)c1ccc(NC(=O)c2cc3occc3n2Cc2ccccc2F)cc1 [Compound 7d, N-[4-(aminosulfonyl)phenyl]-4-(2-fluorobenzyl)-4H-furo[3,2-b]pyrrole-5-carboxamide] |  |  |  | 240 to 242 °C |  |  |  |  |
| NS(=O)(=O)c1ccc(NC(=O)c2cc3occc3n2Cc2ccccc2)cc1 [Compound 7c, N-[4-(aminosulfonyl)phenyl]-4-benzyl-4H-furo[3,2-b]pyrrole-5-carboxamide] | 276 nM | 3560 nM | 37.5 nM | 240 to 241 °C | 4.6 nM |  |  |  |
| NS(=O)(=O)c1ccc(NC(=O)c2cc3sccc3n2Cc2ccccc2F)cc1 [Compound 8d, N-[4-(aminosulfonyl)phenyl]-4-(2-fluorobenzyl)-4H-thieno[3,2-b]pyrrole-5-carboxamide] | 171 nM | 656 nM | 8.7 nM | 235 to 237 °C | 8.2 nM |  |  |  |
